Experimental data taken from patent publication US6706740B2, “Fungicidal heterocyclic aromatic amides and their compositions, methods of use and preparation” (Dow AgroSciences LLC, priority 1999, dated 2004).
Like-named read-outs stand apart in the source and are kept apart here.

How the values were obtained:
[1] = test system: Erysiphe graminis—ERYSGT; assay: Powdery Mildew of Wheat, in vivo whole plant, 24 Hour Protectant; settings: Erysiphe, read-out: ERYSGT in vivo 1 Day Protectant
[2] = test system: Mycosphaerella graminicola (Septoria tritici—SEPTTR); assay: In vitro fungal growth inhibition, Mycosphaerella graminicola (SEPTTR); format: cell-based; settings: Zymoseptoria tritici, read-out: SEPTTR in vitro Growth Inhibition
[3] = test system: Septoria tritici—SEPTTR; assay: Leaf Blotch of Wheat, in vivo whole plant, 24 Hour Protectant; settings: Zymoseptoria tritici, 24 h, read-out: SEPTTR in vivo 1 Day Protectant
[4] = test system: Ustilago maydis (USTIMA); assay: microbe, parasite or virus in culture; format: cell-based; settings: Mycosarcoma maydis, read-out: USTIMA in vitro Growth Inhibition
[5] = test system: Phytophthora infestans (PHYTIN); assay: microbe, parasite or virus in culture; format: cell-based; settings: Phytophthora infestans, read-out: PHYTIN in vitro Growth Inhibition
[6] = test system: Leptosphaeria nodorum—LEPTNO; assay: Glume Blotch of Wheat, in vivo whole plant, 24 Hour Protectant; settings: for pest or weed control at 100 ppm: Leptosphaeria, read-out: LEPTNO in vivo 1 Day Protectant
[7] = test system: Rhizoctonia solani (RHIZSO); assay: microbe, parasite or virus in culture; format: cell-based; settings: Rhizoctonia solani, read-out: RHIZSO in vitro Growth Inhibition
[8] = test system: Phytophthora infestans—PHYTIN; assay: whole plant or invertebrate; format: in vivo; settings: Phytophthora, in Solanum lycopersicum, 24 h, read-out: PHYTIN in vivo 1 Day Protectant
[9] = test system: Puccinia recondita—PUCCRT; assay: Brown Rust of Wheat, in vivo whole plant, 24 Hour Protectant; settings: Puccinia, read-out: PUCCRT in vivo 1 Day Protectant
[10] = test system: Stagonospora nodorum (Leptosphaeria nodorum—LEPTNO); assay: In vitro fungal growth inhibition, Stagonospora nodorum (LEPTNO); format: cell-based; settings: Leptosphaeria, read-out: LEPTNO in vitro Growth Inhibition
[11] = test system: Magnaporthe grisea (Pyricularia oryzae—PYRIOR); assay: microbe, parasite or virus in culture; format: cell-based; settings: Pyricularia oryzae, read-out: PYRIOR in vitro Growth Inhibition
[12] = wheat plants sprayed at 100 ppm, inoculated after 24 hours, control of fungal infection vs untreated plants
[13] = 100 ppm spray, wheat, 24 hour protectant, control of fungal infection vs untreated plants
[14] = 100 ppm spray, wheat, 24 hour protectant, % control of fungal infection vs untreated plants

`CC1(C)CC(NC(=O)c2conc2O)CC(C)(C)C1` [Compound 560] gave a melting point of 186 to 188 °C, a pest or weed control at 100 ppm [1, 12] of less than 25% and an inhibition at 25 ppm ([2]; 25 ppm in the growth medium) of less than 80%. It also gave a pest or weed control at 100 ppm [3, 12] of 25 to 74%, an inhibition at 25 ppm [4] of less than 80% and an inhibition at 25 ppm [5] of less than 80%. It also gave a pest or weed control at 100 ppm [6, 12] of 25 to 74%, an inhibition at 25 ppm [7] of less than 80% and a pest or weed control at 100 ppm [8] of less than 25%. The pest or weed control at 100 ppm [9, 12] was 25 to 74%, the inhibition at 25 ppm ([10]; 25 ppm in the growth medium) was less than 80% and the inhibition at 25 ppm [11] was less than 80%.

Work on `O=C(NCC1CCCc2ccccc21)c1nc(Br)ccc1O` (stereo not drawn) [Compound 485] yielded a melting point of 140 to 142 °C, a pest or weed control at 100 ppm [1, 12] of less than 25% and an inhibition at 25 ppm ([2]; 25 ppm in the growth medium) of less than 80%. The pest or weed control at 100 ppm [3, 12] was less than 25%, the inhibition at 25 ppm [4] was less than 80% and the inhibition at 25 ppm [5] was less than 80%. The pest or weed control at 100 ppm [6, 12] was less than 25%, the inhibition at 25 ppm [7] was less than 80% and the pest or weed control at 100 ppm [8] was less than 25%. For the same compound, the pest or weed control at 100 ppm [9, 12] was less than 25%, the inhibition at 25 ppm ([10]; 25 ppm in the growth medium) was less than 80% and the inhibition at 25 ppm [11] was less than 80%.

`COc1ccnc(C(=O)Nc2ccc(Sc3cccc(C(F)(F)F)c3)cc2)c1O` [Compound 445] showed a melting point of 167 to 169 °C, a pest or weed control at 100 ppm [1, 13] of 25 to 74% and an inhibition at 25 ppm ([2]; 25 ppm in growth medium) greater than 80%. For the same compound, the pest or weed control at 100 ppm [3, 13] was 25 to 74%, the inhibition at 25 ppm [4] was greater than 80% and the inhibition at 25 ppm [5] was less than 80%. The “LEPTNO in vivo 1 Day Protectant” value [6, 13] was “+ +”, the inhibition at 25 ppm [7] was less than 80% and the pest or weed control at 100 ppm [8] was less than 25%. The pest or weed control at 100 ppm [9, 13] was 25 to 74%, the inhibition at 25 ppm ([10]; 25 ppm in growth medium) was less than 80% and the inhibition at 25 ppm [11] was greater than 80%.

Compound `COc1ccnc(C(=O)Nc2ccc(NC(=O)c3cccc(C(F)(F)F)c3)cc2)c1OC(C)=O` [Compound 719] has a melting point of 124 to 126 °C, a pest or weed control at 100 ppm [1, 14] of less than 25% and an inhibition at 25 ppm ([2]; 25 ppm in growth medium) of less than 80%. The pest or weed control at 100 ppm [3, 14] was less than 25%, the inhibition at 25 ppm [4] was less than 80% and the inhibition at 25 ppm [5] was less than 80%. For the same compound, the pest or weed control at 100 ppm [6, 14] was 25 to 74%, the inhibition at 25 ppm [7] was less than 80% and the pest or weed control at 100 ppm [8] was less than 25%. It also gave a pest or weed control at 100 ppm [9, 14] of less than 25%, an inhibition at 25 ppm ([10]; 25 ppm in growth medium) of less than 80% and an inhibition at 25 ppm [11] of less than 80%.

For `COc1ccnc(C(=O)Nc2ccc(Oc3ccc(OC(=O)C(C)C)cc3)cc2)c1O` [Compound 436], the melting point was 109 to 110.5 °C, the pest or weed control at 100 ppm [1, 13] was less than 25% and the inhibition at 25 ppm ([2]; 25 ppm in growth medium) was less than 80%. For the same compound, the pest or weed control at 100 ppm [3, 13] was 25 to 74%, the inhibition at 25 ppm [4] was less than 80% and the inhibition at 25 ppm [5] was less than 80%. It also gave a pest or weed control at 100 ppm [6, 13] of 25 to 74%, an inhibition at 25 ppm [7] of less than 80% and a pest or weed control at 100 ppm [8] of less than 25%. The pest or weed control at 100 ppm [9, 13] was less than 25%, the inhibition at 25 ppm ([10]; 25 ppm in growth medium) was less than 80% and the inhibition at 25 ppm [11] was less than 80%.

Compound `CC1(C)CC(NC(=O)c2cn(-c3ccccc3)nc2O)CC(C)(C)C1` [Compound 559] has a melting point of 215 to 217 °C, a pest or weed control at 100 ppm [1, 12] of less than 25% and an inhibition at 25 ppm ([2]; 25 ppm in the growth medium) of less than 80%. For the same compound, the pest or weed control at 100 ppm [3, 12] was less than 25%, the inhibition at 25 ppm [4] was less than 80% and the inhibition at 25 ppm [5] was less than 80%. It also gave a pest or weed control at 100 ppm [6, 12] of 25 to 74%, an inhibition at 25 ppm [7] of less than 80% and a pest or weed control at 100 ppm [8] of less than 25%. It also gave a pest or weed control at 100 ppm [9, 12] of 25 to 74%, an inhibition at 25 ppm ([10]; 25 ppm in the growth medium) of less than 80% and an inhibition at 25 ppm [11] of less than 80%.

Compound `CCOc1ccnc(C(=O)NC2COC(=O)[C@H](Cc3ccccc3)[C@@H](OC(=O)C(C)C)[C@H](C)OC2=O)c1O` (stereo partly drawn) [Compound 475] has a melting point of 168 to 172 °C, a pest or weed control at 100 ppm [1, 12] of less than 25% and an inhibition at 25 ppm ([2]; 25 ppm in the growth medium) greater than 80%. It also gave a pest or weed control at 100 ppm [3, 12] of 25 to 74%, an inhibition at 25 ppm [4] of less than 80% and an inhibition at 25 ppm [5] of less than 80%. For the same compound, the “LEPTNO in vivo 1 Day Protectant” value [6, 12] was “+ +”, the inhibition at 25 ppm [7] was less than 80% and the pest or weed control at 100 ppm [8] was less than 25%. It also gave a pest or weed control at 100 ppm [9, 12] of 25 to 74%, an inhibition at 25 ppm ([10]; 25 ppm in the growth medium) greater than 80% and an inhibition at 25 ppm [11] greater than 80%.
